# Experimental data published in patent US9096832B2, “Differentiation of human embryonic stem cells” (LifeScan, Inc., priority 2007, dated 2015).
# Tested on: H9 embryonic stem cells
# Experiment: Microarray analysis of definitive endoderm stage cells on […] or MEFs +/- Wnt-3a (Table VI)
# Assay type: cell-based, human
# Settings: for mean normalized intensity: ESTs: DE treatment in low serum on MEFS, log format
substance,measurement,setting,value
"Activin A: activin A (a member of the TGFβ superfamily), R&D Systems; 'w/o wnt' in Table VII = 100 ng/ml Activin A without Wnt3a",mean normalized intensity: ESTs,gene line r2134,−0.9461
same,mean normalized intensity: ESTs,gene line r2148,5.334
same,"Intensity (log): 6-phosphofructo-2-kinasefructose-2,6-biphosphatase 4","low serum, on MATRIGEL",−0.2429
same,"Intensity (log): ESTs, Highly similar to IHH_HUMAN INDIAN HEDGEHOG PROTEIN PRECURSOR (H. sapiens)","low serum, on MATRIGEL",−0.654
same,"Intensity (log): ESTs, Moderately similar to JE0284 Mm-1 cell derived transplantability-associated protein 1b (H. sapiens)","low serum, on MATRIGEL",−2.377
same,"Intensity (log): ESTs, Weakly similar to FCE2 MOUSE LOW AFFINITY IMMUNOGLOBULIN EPSILON FC RECEPTOR (M. musculus)","low serum, on MATRIGEL",0.4942
same,"Intensity (log): ESTs, Weakly similar to the 331st table hypothetical protein KIAA0555 (H. sapiens)","low serum, on MATRIGEL",−1.574
same,Intensity (log): G protein-coupled receptor,"low serum, on MATRIGEL",1.507
same,Intensity (log): G protein-coupled receptor 49,"low serum, on MATRIGEL",0.2655
same,"Intensity (log): Homo sapiens Kell blood group (KEL), mRNA","low serum, on MATRIGEL",−2.205
same,"Intensity (log): Homo sapiens MLL septin-like fusion (MSF), mRNA","low serum, on MATRIGEL",−3.292
same,"Intensity (log): Homo sapiens Mix-like homeobox protein 1 (MILD1) mRNA, complete cds","low serum, on MATRIGEL",−1.546
same,"Intensity (log): Homo sapiens Rho GTPase activating protein 6 (ARHGAP6), transcript variant 2, mRNA","low serum, on MATRIGEL",−1.104
same,"Intensity (log): Homo sapiens TBX3-iso protein (TBX3-iso), mRNA","low serum, on MATRIGEL",−2.346
same,"Intensity (log): Homo sapiens angiopoietin 2 (ANGPT2), mRNA","low serum, on MATRIGEL",−2.93
same,"Intensity (log): Homo sapiens ankyrin-like with transmembrane domains 1 (ANKTM1), mRNA","low serum, on MATRIGEL",−1.109
same,"Intensity (log): Homo sapiens apolipoprotein A-I (APOA1), mRNA","low serum, on MATRIGEL",−1.471
same,"Intensity (log): Homo sapiens apolipoprotein A-II (APOA2), mRNA","low serum, on MATRIGEL",−1.033
same,"Intensity (log): Homo sapiens arylsulfatase E (chondrodysplasia punctata 1) (ARSE), mRNA","low serum, on MATRIGEL",0.283
same,"Intensity (log): Homo sapiens atrophin-1 interacting protein 1; activin receptor interacting protein 1 (KIAA0705), mRNA","low serum, on MATRIGEL",−4.308
same,"Intensity (log): Homo sapiens beta-site APP cleaving enzyme (BACE) mRNA, complete cds","low serum, on MATRIGEL",−2.0354
same,"Intensity (log): Homo sapiens cDNA FLJ11550 fis, clone HEMBA1002970","low serum, on MATRIGEL",−1.222
same,"Intensity (log): Homo sapiens cDNA FLJ12993 fis, clone NT2RP3000197","low serum, on MATRIGEL",0.1473
same,"Intensity (log): Homo sapiens cDNA FLJ13221 fis, clone NT2RP4002075","low serum, on MATRIGEL",0.3557
same,"Intensity (log): Homo sapiens cardiac ventricular troponin C mRNA, complete cds","low serum, on MATRIGEL",−0.5497
same,"Intensity (log): Homo sapiens cartilage linking protein 1 (CRTL1), mRNA","low serum, on MATRIGEL",−1.315
same,"Intensity (log): Homo sapiens cell adhesion molecule with homology to L1CAM (close homologue of L1) (CHL1), mRNA","low serum, on MATRIGEL",−0.5412
same,"Intensity (log): Homo sapiens chromosome 19, cosmid R31181","low serum, on MATRIGEL",−0.2589
same,Intensity (log): Homo sapiens clone 23736 mRNA sequence,"low serum, on MATRIGEL",−0.04718
same,"Intensity (log): Homo sapiens cryptic mRNA, complete cds","low serum, on MATRIGEL",0.1049
same,"Intensity (log): Homo sapiens cystatin S (CST4), mRNA","low serum, on MATRIGEL",0.9245
same,"Intensity (log): Homo sapiens cystatin SA (CST2), mRNA","low serum, on MATRIGEL",−0.1022
same,"Intensity (log): Homo sapiens cystatin SN (CST1), mRNA","low serum, on MATRIGEL",0.07293
same,"Intensity (log): Homo sapiens cytidine deaminase (CDA), mRNA","low serum, on MATRIGEL",−3.891
same,"Intensity (log): Homo sapiens dual specificity phosphatase 4 (DUSP4), mRNA","low serum, on MATRIGEL",0.9539
same,"Intensity (log): Homo sapiens fibroblast growth factor 8 (androgen-induced) (FGF8), mRNA","low serum, on MATRIGEL",−4.328
same,"Intensity (log): Homo sapiens fibroblast growth factor 17 (FGF17), mRNA","low serum, on MATRIGEL",−0.8946
same,"Intensity (log): Homo sapiens frizzled-related protein (FRZB), mRNA","low serum, on MATRIGEL",0.565
same,"Intensity (log): Homo sapiens gastrin-releasing peptide (GRP), mRNA","low serum, on MATRIGEL",−2.741
same,"Intensity (log): Homo sapiens glycophorin E (GYPE), mRNA","low serum, on MATRIGEL",−2.016
same,Intensity (log): Homo sapiens glycophorin Erik STA (GPErik) gene complete cds,"low serum, on MATRIGEL",−1.194
same,"Intensity (log): Homo sapiens growth differentiation factor 3 (GDF3), mRNA","low serum, on MATRIGEL",1.673
same,"Intensity (log): Homo sapiens haptoglobin (HP), mRNA","low serum, on MATRIGEL",−1.101
same,"Intensity (log): Homo sapiens haptoglobin-related protein (HPR), mRNA","low serum, on MATRIGEL",−2.6068
same,"Intensity (log): Homo sapiens homeobox protein goosecoid mRNA, complete cds","low serum, on MATRIGEL",−4.42
same,"Intensity (log): Homo sapiens hypothetical protein FLJ10718 (FLJ10718), mRNA","low serum, on MATRIGEL",2.605
same,"Intensity (log): Homo sapiens hypothetical protein FLJ10970 (FLJ10970), mRNA","low serum, on MATRIGEL",−0.432
same,"Intensity (log): Homo sapiens hypothetical protein FLJ11316 (FLJ11316), mRNA","low serum, on MATRIGEL",−0.9047
same,"Intensity (log): Homo sapiens hypothetical protein FLJ22252 similar to SRY-box containing gene 17 (FLJ22252), mRNA","low serum, on MATRIGEL",1.368
same,"Intensity (log): Homo sapiens lumican (LUM), mRNA","low serum, on MATRIGEL",−4.057
same,"Intensity (log): Homo sapiens mRNA for GATA-6, complete cds","low serum, on MATRIGEL",2.219
same,"Intensity (log): Homo sapiens mRNA for KIAA1409 protein, partial cds","low serum, on MATRIGEL",0.3683
same,Intensity (log): Homo sapiens mRNA; cDNA DKFZp434D0818 (from clone DKFZp434D0818),"low serum, on MATRIGEL",−2.634
same,Intensity (log): Homo sapiens mRNA; cDNA DKFZp586J0624 (from clone DKFZp586J0624); complete cds,"low serum, on MATRIGEL",−0.8352
same,"Intensity (log): Homo sapiens presenilin stabilization factor b (PSF) mRNA, complete cds; alternatively spliced","low serum, on MATRIGEL",−0.8617
same,"Intensity (log): Homo sapiens reserved (KCNK12), mRNA","low serum, on MATRIGEL",−0.4687
same,"Intensity (log): Homo sapiens retinoid X receptor, gamma (RXRG), mRNA","low serum, on MATRIGEL",−2.375
same,"Intensity (log): Homo sapiens sema domain, immunoglobulin domain (Ig), short basic domain, secreted, (semaphorin) 3E (SEMA3E), mRNA","low serum, on MATRIGEL",−0.786
same,"Intensity (log): Homo sapiens sema domain, seven thrombospondin repeats (type 1 and type 1-like), transmembrane domain (TM) and short cytoplasmic domain, (semaphorin) 5A (SEMA5A), mRNA","low serum, on MATRIGEL",−1.533
same,"Intensity (log): Homo sapiens solute carrier family 21 (prostaglandin transporter), member 2 (SLC21A2), mRNA","low serum, on MATRIGEL",0.7114
same,"Intensity (log): Homo sapiens type VI collagen alpha 2 chain precursor (COL6A2) mRNA, complete cds, alternatively spliced","low serum, on MATRIGEL",1.7011
same,"Intensity (log): Homo sapiens, alpha-1 (VI) collagen","low serum, on MATRIGEL",−3.662
same,"Intensity (log): Homo sapiens, clone MGC: 4655, mRNA, complete cds","low serum, on MATRIGEL",2.3772
same,"Intensity (log): Human (clone 8B1) Br-cadherin mRNA, complete cds","low serum, on MATRIGEL",−2.179
same,"Intensity (log): Human (clone HSY3RR) neuropeptide Y receptor (NPYR) mRNA, complete cds","low serum, on MATRIGEL",1.775
same,"Intensity (log): Human DNA sequence from clone RP1-181C24 on chromosome 6p11.1-12.2. Contains the 3 end of the BMP5 gene for bone morphogenetic protein 5, ESTs, STSs and GSSs","low serum, on MATRIGEL",−3.723
same,"Intensity (log): Human Fritz mRNA, complete cds","low serum, on MATRIGEL",0.4366
same,"Intensity (log): Human dipeptidyl peptidase IV (CD26) mRNA, complete cds","low serum, on MATRIGEL",−3.611
same,"Intensity (log): Human glycophorin HeP2 mRNA, partial cds","low serum, on MATRIGEL",−0.8435
same,"Intensity (log): Human link protein mRNA, complete cds","low serum, on MATRIGEL",−1.94
same,Intensity (log): Human mRNA for alpha-1 type II collagen,"low serum, on MATRIGEL",−2.8736
same,Intensity (log): Human mRNA for apolipoprotein AI (apo AI),"low serum, on MATRIGEL",0.2151
same,"Intensity (log): Human prostatic secretory protein 57 mRNA, complete cds","low serum, on MATRIGEL",−3.013
same,Intensity (log): KIAA1462 protein,"low serum, on MATRIGEL",−3.846
same,"Intensity (log): MCP-1 = monocyte chemotactic protein (human, aortic endothelial cells, mRNA, 661 nt)","low serum, on MATRIGEL",−2.276
same,Intensity (log): Rho GDP dissociation inhibitor (GDI) alpha,"low serum, on MATRIGEL",−1.544
same,"Intensity (log): WAS protein family, member 2","low serum, on MATRIGEL",−2.187
same,"Intensity (log): collagen, type IX, alpha 2","low serum, on MATRIGEL",1.27
same,"Intensity (log): collagen, type VI, alpha 1","low serum, on MATRIGEL",−1.418
same,"Intensity (log): hepatocyte nuclear factor 4, alpha","low serum, on MATRIGEL",−4.266
same,Intensity (log): homeo box HB9,"low serum, on MATRIGEL",−1.656
same,Intensity (log): hypothetical protein FLJ21032,"low serum, on MATRIGEL",0.3557
same,Intensity (log): hypothetical protein FLJ23091,"low serum, on MATRIGEL",0.3234
same,Intensity (log): microfibrillar-associated protein 4,"low serum, on MATRIGEL",0.06379
same,"Intensity (log): myristoylated alanine-rich protein kinase C substrate (MARCKS, 80K-L)","low serum, on MATRIGEL",−0.7172
